One data set has as its target T1, recombinant rat WT CAC (Rattus norvegicus, UniProt P97521).
T1 construct: made in house; host or cells: E. coli C0214 (pMW7, inclusion bodies)
T1 sequence (P97521 1-301): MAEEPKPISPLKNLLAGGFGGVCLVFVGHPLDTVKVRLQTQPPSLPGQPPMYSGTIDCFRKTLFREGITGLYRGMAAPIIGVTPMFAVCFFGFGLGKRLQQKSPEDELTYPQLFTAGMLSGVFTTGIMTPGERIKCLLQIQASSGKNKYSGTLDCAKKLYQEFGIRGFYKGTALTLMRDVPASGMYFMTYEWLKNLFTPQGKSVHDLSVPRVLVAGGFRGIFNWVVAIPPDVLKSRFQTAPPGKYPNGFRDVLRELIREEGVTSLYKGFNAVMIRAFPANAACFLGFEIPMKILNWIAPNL
Kind of data set: [3H]-carnitine/carnitine antiport in proteoliposomes with recombinant rat WT CAC. The data set is classed as biochemical. As for the experimental part:
To shed light on the interaction between PAT and CAC and verify if specific Cys residues were involved, transport experiments on the recombinant rat and human WT CAC and CAC’s rat Cys mutants were performed. As in the case of the native protein, transport activities were measured as [^3H]-carnitine/carnitine antiport in proteoliposomes. […] The PAT inhibition of the WT recombinant protein was only slightly greater compared to the native protein, although compounds and other molecular systems that affect the mycotoxin binding to the native CAC were absent (see above). For identifying the residues involved in the PAT interaction, site-directed Cys mutants were tested for inhibition (Figure 2). […] The choice of this last mutant was due to the proximity of C155 to C136 during some steps of the substrate translocation mechanism. […] To confirm the main role played by C136 in the carrier PAT-induced impairment, the single mutant C155S and the mutant containing only C136 residue (C23V/C58V/C89S/C155V/C283S) were examined (Figure 2). […] Finally, no effect of the mycotoxin was observed on the C-less mutant (C23V/C58V/C89S/C136V/C155V/C283S), definitively excluding the participation of other residues in the interaction with PAT.
Figure 2 Dose-response analysis of the PAT inhibition of the CAC recombinant proteins. […] The data are expressed as a percentage of the controls (no PAT addition) and are means ± SD of three independent experiments.
The pMW7-WT rat or human CAC recombinant plasmids were used for over-expressing the rat and human CAC, as previously described. To introduce the mutations on the rat CAC recombinant plasmid, the overlap extension method was used as described, introducing the NdeI and HindIII restriction sites. The PCR products were purified using the QIAEX II Gel Extraction Kit (QIAGEN, Hilden, Germany), digested with NdeI and HindIII, and then ligated into the pMW7. All mutations were verified by DNA sequencing. The resulting plasmid constructs were transformed into E. coli C0214. Overexpression, inclusion body fraction preparation, and purification of the CAC proteins were performed as previously described.
The recombinant CAC proteins were reconstituted in proteoliposomes as previously described. […]
For the transport assay, 550 μL of proteoliposomes were passed through a Sephadex G-75 column in order to remove the external substrate. […] After finishing the transport reaction, the external radiolabel substrate was removed by gel filtration chromatography (Sephadex G-75), and the intraliposomal radioactivity was measured by liquid scintillation. Transport was measured at 25 °C. […] Transport rates were measured in 10 min, i.e., within the initial linear range of the time course.

The nature of data set [1]: Stability of PAT solution stored at room temperature, read out as inhibition of recombinant WT CAC transport. The note with it: 25 and 50 µM PAT, stored at r.t., 24 and 72 h. The class given is physicochemical. From the text:
Figure 3A reports the interaction of PAT with the reconstituted WT protein. The inhibition observed after the pretreatment of proteoliposomes with the mycotoxin was not reversed by DTE, confirming the formation of an irreversible covalent bond between CAC and PAT also with the purified recombinant protein (see above Figure 1B). For evaluating the stability of the drug following prolonged storage, we measured the inhibition of the transport activity of WT adding to the samples, at various time, the same PAT solution stored at room temperature (r.t.).
Figure 3 (A) Reversal of PAT inhibition on recombinant protein by DTE. The carnitine homo-exchange transport activity was measured, as described in Materials and Methods, adding 0.1 mM [^3H] carnitine to proteoliposomes reconstituted with the recombinant WT CAC containing 15 mM internal carnitine in the absence or presence of 50 μM PAT, added 30 min before the labelled substrate. 5 mM dithioerythritol (DTE) was added 1 min before the transport assay in a control and PAT treated aliquot, respectively. […] Proteoliposomes reconstituted with the WT CAC were incubated by the same PAT solution (25 and 50 µM) after 0.5 h, 24 h and 72 h (white, grey and black bars, respectively) and then the transport activity was measured by adding 0.1 mM [^3H]-carnitine and stopped after 30 min as described in Materials and Methods.

pIC50: −log10 of the molar value. Several values for one entry are separate records, joined by “and”; a condition that tells them apart may be missing. Identical values can stand only once.

Results on 1 molecule are retold here after article PMC9917099, “The Mycotoxin Patulin Inhibits the Mitochondrial Carnitine/Acylcarnitine Carrier (SLC25A20) by Interaction with Cys136 Implications for Human Health” (International Journal of Molecular Sciences, 2023).

The term pIC50 denotes the IC50 on a negative log10 scale, so that one unit is a factor of ten. For the molecule `O=C1C=C2C(=CCOC2O)O1` (centres unmarked) [PAT, 4-hydroxy-4H-furo [3,2c] pyran-2 [6H] -one], the “reversal of inhibition by DTE” value on recombinant rat WT CAC (50 μM PAT 30 min, 5 mM DTE, recombinant WT) is on record as “not reversed”. In addition, the “substrate protection: effect of carnitine on PAT inhibition” value at recombinant rat WT CAC (carnitine 0.5 and 10 mM added before 50 μM PAT) is listed as “partially prevented”. At recombinant rat WT CAC (protein form not specified), the type of inhibition entry is recorded as “competitive”. Further, the pIC50 on recombinant rat WT CAC (rat recombinant WT, PAT 30 min, read-out: IC50 of CAC WT inhibition) was 4.33 and ~4.30. In data set [1], the “reactivity towards CAC of stored PAT solution” value was “does not change”.
